Experimental data: US20240368139A1, “NOVEL MODULATORS OF EHMT1 AND EHMT2 AND THERAPEUTIC USE THEREOF” (Tango Therapeutics, Inc., priority 2021, published 2024)

test system: H3K9me2 in HCT116 cells; assay: HCT116 H3K9me2 in-cell western assay; type: cell-based; details: Homo sapiens, HCT-116, 72 h, HCT116 cells, 72 hours incubation; read-out: H3K9me2 ICW IC50
Procedure, shortened: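 HCT116 cells (2,000/well) were treated for 72 h at 37° C, 5% CO2, with ten two-fold dilutions from 10 μM in duplicate. After PFA fixation, cells were stained overnight at 4° C with anti-H3K9me2, then with an 800 CW secondary plus DRAQ5.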

Structure (SMILES)	IC50 [nM]
CNc1cc(C)nc(Nc2cc3c(c(C4=CCNCCC4)c2)CCO3)n1 [Compound 332]	100 to 500
CNc1cc(C)nc(Nc2cc3c(c(C4C[C@H]5CNC[C@H]5C4)c2)OCCO3)n1 (stereo partly shown) [Compound 334]	100 to 500
CNc1ccnc(Nc2cc3c(c(C4=CCN(C)CCC4)c2)OCO3)n1 [Compound 335]	100 to 500
CNc1ccnc(Nc2cc3c(c(C4=CCNCCC4)c2)OCO3)n1 [Compound 336]	< 100
CNc1cc(C)nc(Nc2cc3c(c(C4CCCNCC4)c2)OCCO3)n1 (stereo not shown) [Compound 348]	100 to 500

Now from value to compound:

IC50 [nM]	Structure (SMILES)
< 100	CNc1ccnc(Nc2cc3c(c(C4=CCN(C)CCC4)c2)OCC3)n1 [Compound 331]
100 to 500	CNc1cc(C)nc(Nc2cc3c(c(C4CCCNCC4)c2)OCCC3)n1 (stereo not shown) [Compound 341]

biological target: T1, human EHMT2 913-1193 (Homo sapiens, UniProt Q96KQ7); assay: EHMT2 enzyme assay on histone peptide substrate (3H-SAM SPA); details: EHMT2 IC50, recombinant human EHMT2 913-1193, histone peptide substrate
T1 sequence (Q96KQ7 913-1193): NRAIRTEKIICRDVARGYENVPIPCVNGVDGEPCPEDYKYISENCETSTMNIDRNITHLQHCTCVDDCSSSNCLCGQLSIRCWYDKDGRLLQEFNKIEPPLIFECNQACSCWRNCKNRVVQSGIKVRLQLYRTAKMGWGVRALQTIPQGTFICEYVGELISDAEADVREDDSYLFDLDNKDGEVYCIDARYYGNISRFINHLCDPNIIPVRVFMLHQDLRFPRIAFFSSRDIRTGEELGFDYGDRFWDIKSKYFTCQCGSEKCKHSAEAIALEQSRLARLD

Structure (SMILES)	IC50 [nM]
CNc1cc(C)nc(Nc2cc3c(c(C4=CCNCCC4)c2)CCO3)n1 [Compound 332]	100 to 500
CNc1cc(C)nc(Nc2cc3c(c(C4C[C@H]5CNC[C@H]5C4)c2)OCCO3)n1 (stereo partly shown) [Compound 334]	500 to 2000
CNc1ccnc(Nc2cc3c(c(C4=CCN(C)CCC4)c2)OCO3)n1 [Compound 335]	100 to 500
CNc1ccnc(Nc2cc3c(c(C4=CCNCCC4)c2)OCO3)n1 [Compound 336]	< 100
CNc1cc(C)nc(Nc2cc3c(c(C4CCCNCC4)c2)OCCO3)n1 (stereo not shown) [Compound 348]	100 to 500

Next, values leading:

IC50 [nM]	Structure (SMILES)
100 to 500	CNc1ccnc(Nc2cc3c(c(C4=CCN(C)CCC4)c2)OCC3)n1 [Compound 331]
100 to 500	CNc1cc(C)nc(Nc2cc3c(c(C4CCCNCC4)c2)OCCC3)n1 (stereo not shown) [Compound 341]

biological target: T2, human EHMT1 982-1266 (Homo sapiens, UniProt Q9H9B1); assay: EHMT1 enzyme assay on histone peptide substrate (3H-SAM SPA); details: EHMT1 IC50, recombinant human EHMT1 982-1266, histone peptide substrate
T2 sequence (Q9H9B1 982-1266): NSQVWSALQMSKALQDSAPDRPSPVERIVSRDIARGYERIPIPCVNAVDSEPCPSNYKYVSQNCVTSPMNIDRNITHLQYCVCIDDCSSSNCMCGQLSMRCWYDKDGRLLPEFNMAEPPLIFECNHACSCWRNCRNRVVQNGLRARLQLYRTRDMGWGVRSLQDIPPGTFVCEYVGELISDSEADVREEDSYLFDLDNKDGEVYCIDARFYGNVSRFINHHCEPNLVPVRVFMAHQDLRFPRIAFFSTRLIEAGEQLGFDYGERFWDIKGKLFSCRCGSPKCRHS

Structure (SMILES)	IC50 [nM]
CNc1cc(C)nc(Nc2cc3c(c(C4=CCNCCC4)c2)CCO3)n1 [Compound 332]	100 to 500
CNc1cc(C)nc(Nc2cc3c(c(C4C[C@H]5CNC[C@H]5C4)c2)OCCO3)n1 (stereo partly shown) [Compound 334]	100 to 500
CNc1ccnc(Nc2cc3c(c(C4=CCN(C)CCC4)c2)OCO3)n1 [Compound 335]	100 to 500
CNc1ccnc(Nc2cc3c(c(C4=CCNCCC4)c2)OCO3)n1 [Compound 336]	< 100
CNc1cc(C)nc(Nc2cc3c(c(C4CCCNCC4)c2)OCCO3)n1 (stereo not shown) [Compound 348]	100 to 500

More lines, now with the values ahead:

IC50 [nM]	Structure (SMILES)
< 100	CNc1ccnc(Nc2cc3c(c(C4=CCN(C)CCC4)c2)OCC3)n1 [Compound 331]
< 100	CNc1cc(C)nc(Nc2cc3c(c(C4CCCNCC4)c2)OCCC3)n1 (stereo not shown) [Compound 341]

biological target: hERG potassium channels (Homo sapiens, UniProt Q12809); assay: In vitro hERG assay (SyncroPatch whole-cell recording); details: hERG IC50, SyncroPatch, room temperature
Sequence (Q12809 whole entry): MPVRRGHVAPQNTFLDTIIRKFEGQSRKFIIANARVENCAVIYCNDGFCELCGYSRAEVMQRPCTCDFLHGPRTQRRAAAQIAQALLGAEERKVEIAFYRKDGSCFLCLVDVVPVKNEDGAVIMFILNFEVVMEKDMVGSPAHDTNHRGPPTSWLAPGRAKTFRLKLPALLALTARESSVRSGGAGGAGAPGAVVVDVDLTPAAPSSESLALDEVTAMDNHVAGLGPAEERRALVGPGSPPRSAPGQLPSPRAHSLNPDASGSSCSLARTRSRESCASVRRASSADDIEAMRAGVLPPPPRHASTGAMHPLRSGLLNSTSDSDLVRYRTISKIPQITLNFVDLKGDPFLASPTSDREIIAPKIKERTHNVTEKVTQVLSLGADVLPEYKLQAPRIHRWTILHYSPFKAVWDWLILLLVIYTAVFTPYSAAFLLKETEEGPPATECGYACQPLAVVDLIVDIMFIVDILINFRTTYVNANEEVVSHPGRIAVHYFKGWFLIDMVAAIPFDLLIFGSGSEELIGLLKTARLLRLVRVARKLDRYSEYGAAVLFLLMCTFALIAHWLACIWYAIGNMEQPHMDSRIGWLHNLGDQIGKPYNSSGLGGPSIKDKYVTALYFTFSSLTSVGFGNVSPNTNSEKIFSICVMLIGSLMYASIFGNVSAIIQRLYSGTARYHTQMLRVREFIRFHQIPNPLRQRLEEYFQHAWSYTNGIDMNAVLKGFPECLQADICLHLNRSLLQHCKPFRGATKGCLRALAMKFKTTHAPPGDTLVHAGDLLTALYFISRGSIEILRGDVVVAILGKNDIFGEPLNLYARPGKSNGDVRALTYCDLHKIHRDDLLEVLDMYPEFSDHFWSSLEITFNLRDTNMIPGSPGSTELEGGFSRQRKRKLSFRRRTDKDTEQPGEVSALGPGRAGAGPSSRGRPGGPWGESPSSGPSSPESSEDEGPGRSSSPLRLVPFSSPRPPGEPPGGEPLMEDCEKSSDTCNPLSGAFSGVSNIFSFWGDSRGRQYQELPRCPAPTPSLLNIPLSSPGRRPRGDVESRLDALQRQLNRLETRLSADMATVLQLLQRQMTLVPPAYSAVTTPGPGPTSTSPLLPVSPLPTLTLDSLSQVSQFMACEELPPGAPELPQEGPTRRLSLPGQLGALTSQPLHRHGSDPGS

Structure (SMILES)	IC50 [µM]
CNc1ccnc(Nc2cc3c(c(C4=CCN(C)CCC4)c2)OCC3)n1 [Compound 331]	> 10
CNc1cc(C)nc(Nc2cc3c(c(C4=CCNCCC4)c2)CCO3)n1 [Compound 332]	> 10
CNc1cc(C)nc(Nc2cc3c(c(C4C[C@H]5CNC[C@H]5C4)c2)OCCO3)n1 (stereo partly shown) [Compound 334]	> 10
CNc1ccnc(Nc2cc3c(c(C4=CCN(C)CCC4)c2)OCO3)n1 [Compound 335]	5 to 10
CNc1ccnc(Nc2cc3c(c(C4=CCNCCC4)c2)OCO3)n1 [Compound 336]	5 to 10
CNc1cc(C)nc(Nc2cc3c(c(C4CCCNCC4)c2)OCCC3)n1 (stereo not shown) [Compound 341]	> 10
CNc1cc(C)nc(Nc2cc3c(c(C4CCCNCC4)c2)OCCO3)n1 (stereo not shown) [Compound 348]	> 10
